Consider 22 molecules from patent US12145927B2 (BRISTOL-MYERS SQUIBB COMPANY, priority 2018, dated 2024).

In general, IC50 refers to the concentration at which inhibition is half-maximal. High values mean weaker potency in that assay, low ones greater potency in that assay.

For this assay, the target named is T1, human IDO1 (Homo sapiens, UniProt P14902).
T1 construct: expressed in transfected cells
T1 sequence (P14902 whole entry): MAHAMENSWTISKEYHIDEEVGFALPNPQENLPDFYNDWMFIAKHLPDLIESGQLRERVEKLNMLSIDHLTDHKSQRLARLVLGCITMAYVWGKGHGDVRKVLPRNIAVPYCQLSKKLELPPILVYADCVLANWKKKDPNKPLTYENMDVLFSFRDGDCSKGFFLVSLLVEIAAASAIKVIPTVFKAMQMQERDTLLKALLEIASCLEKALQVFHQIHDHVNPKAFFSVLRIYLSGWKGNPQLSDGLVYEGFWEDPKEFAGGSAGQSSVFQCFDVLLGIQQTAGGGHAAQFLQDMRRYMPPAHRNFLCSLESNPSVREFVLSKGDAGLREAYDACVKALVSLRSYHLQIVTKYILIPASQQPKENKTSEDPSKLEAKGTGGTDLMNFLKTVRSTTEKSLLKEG
Briefly: IDO inhibition assay in human IDO1/HEK293 cells (IDO1 HEK Human). In kind it is cell-based. As to conditions: HEK293 cells stably expressing human IDO1; 20 hours incubation; absorbance at 490 nm after Ehrlich reagent. As to the method: HEK293 cells were transfected with a pCDNA-based mammalian expression vector harboring human IDO1 cDNA (NM 002164.2) by electroporation. They were cultured in medium (DMEM with 10% FBS) containing 1 mg/ml G418 for two weeks. Clones of HEK293 cells that stably expressed human IDO1 protein were selected and expanded for IDO inhibition assay.
The human IDO1/HEK293 cells were seeded at 10,000 cells per 50 μL per well with RPMI/phenol red free media contains 10% FBS in a 384-well black wall clear bottom tissue culture plate (Matrix Technologies LLC) 100 nL of certain concentration of compound was then added to each well using ECHO liquid handling systems. The cells were incubated for 20 hours in 37° C. incubator with 5% CO2.
The compound treatments were stopped by adding trichloroacetic acid (Sigma-Aldrich) to a final concentration at 0.2%. The cell plate was further incubated at 50° C. for 30 minute. The equal volume supernatant (20 μL) and 0.2% (w/v) Ehrlich reagent (4-dimethylaminobenzaldehyde, Sigma-Aldrich) in glacial acetic acid were mixed in a new clear bottom 384-well plate. This plate was then incubated at RT for 30 minute. The absorbance at 490 nm was measured on Envision plate reader.
Compound IC50 values were calculated using the counts of 500 nM of a reference standard treatment as one hundred percent inhibition, and counts of no compound but DMSO treatment as zero percent inhibition.
Molecule `Fc1cccc2oc(Nc3cc(-c4ccccc4-c4nnn[nH]4)cc4c3OCCCC4C3CC3)nc12` (stereo not shown) [Example 28, N-(7-(2-(1H-tetrazol-5-yl)phenyl)-5-cyclopropyl-2,3,4,5-tetrahydrobenzo[b]oxepin-9-yl)-4-fluorobenzo[d]oxazol-2-amine] had an IC50 of 0.0026 µM. Next, `Cc1ccc(NC(=O)Nc2cc(-c3ccccc3-c3nnn[nH]3)cc3c2OCCCC3C)cc1` (stereo not shown) [Example 31, 1-(7-(2-(1H-tetrazol-5-yl)phenyl)-5-methyl-2,3,4,5-tetrahydrobenzo[b]oxepin-9-yl)-3-(p-tolyl)urea]: 0.0708 µM; `Fc1cnc(Nc2cc(-c3ccccc3-c3nnn[nH]3)cc3c2OCCCC3c2ccccc2)nc1` (single isomer, unassigned) [63 (En-2), N-(7-(2-(1H-tetrazol-5-yl)phenyl)-5-phenyl-2,3,4,5-tetrahydrobenzo[b]oxepin-9-yl)-5-fluoropyrimidin-2-amine]: 0.0116 µM; `CC(=O)NS(=O)(=O)c1ccccc1-c1cc(NC(=O)Nc2ccc(C)cc2)c2c(c1)C(c1ccccc1)CCCO2` (single isomer, unassigned) [59 (En. 2), N-((2-(5-phenyl-9-(3-(p-tolyl)ureido)-2,3,4,5-tetrahydrobenzo[b]oxepin-7-yl)phenyl)sulfonyl)acetamide]: 0.28 µM. Next, `C=CC1Oc2c(NC(=O)Nc3ccccc3F)cc(-c3ccccc3-c3nnn[nH]3)cc2C1c1ccccc1` (racemic) [Example 95]: 0.088 µM; `Cc1cnc(Nc2cc(-c3ccccc3-c3nnn[nH]3)cc3c2OCCCC3c2ccccc2)nc1` (single isomer, unassigned) [55 (En. 1), N-(7-(2-(1H-tetrazol-5-yl)phenyl)-5-phenyl-2,3,4,5-tetrahydrobenzo[b]oxepin-9-yl)-5-methylpyrimidin-2-amine]: 1.4 µM. Next, `c1ccc(C2CCCOc3c(Nc4nc5ccccc5o4)cc(-c4ccccc4-c4nnn[nH]4)cc32)cc1` (racemic) [Example 53, N-(7-(2-(1H-tetrazol-5-yl)phenyl)-5-phenyl-2,3,4,5-tetrahydrobenzo[b]oxepin-9-yl) benzo[d] oxazol-2-amine]: 0.0042 µM; `O=C(Nc1ccccc1F)Nc1cc(-c2ccccc2-c2nnn[nH]2)cc2c1OCCCC2c1ccc(F)cc1` (stereo not shown) [Example 70, 1-(7-(2-(1H-tetrazol-5-yl)phenyl)-5-(4-fluorophenyl)-2,3,4,5-tetrahydrobenzo[b]oxepin-9-yl)-3-(2-fluorophenyl)urea]: 0.0282 µM. `C=CC1Oc2c(NC(=O)Nc3ccc(CC)cc3)cc(-c3ccccc3-c3nnn[nH]3)cc2C1CCC(F)(F)F` (racemic) [Example 99]: the IC50 came out at 0.0056 µM. Next, `c1ccc(C2CCCOc3c(Nc4ccnc5ccnn45)cc(-c4ccccc4-c4nnn[nH]4)cc32)cc1` (single isomer, unassigned) [Example 81, N-(7-(2-(1H-tetrazol-5-yl)phenyl)-5-phenyl-2,3,4,5-tetrahydrobenzo[b]oxepin-9-yl) pyrazolo[1,5-a]pyrimidin-7-amine]: 2.51 µM; `Cc1ccc(NC(=O)Nc2cc(-c3ccccc3S(=O)(=O)NC(=O)c3ccccc3)cc3c2OCCCC3c2ccccc2)cc1` (single isomer, unassigned) [Example 61, N-((2-(5-phenyl-9-(3-(p-tolyl)ureido)-2,3,4,5-tetrahydrobenzo[b]oxepin-7-yl)phenyl)sulfonyl)benzamide]: 2.29 µM. Next, `Cc1ccc(Nc2cc(-c3ccccc3-c3nnn[nH]3)cc3c2OCCCC3c2ccccc2)nc1` (single isomer, unassigned) [62 (En. 1), N-(7-(2-(1H-tetrazol-5-yl)phenyl)-5-phenyl-2,3,4,5-tetrahydrobenzo[b]oxepin-9-yl)-5-methylpyridin-2-amine]: 1.81 µM. Next, `c1ccc(C2CCCOc3c(Nc4ccc5ccccc5n4)cc(-c4ccccc4-c4nnn[nH]4)cc32)cc1` (single isomer, unassigned) [Example 83, N-(7-(2-(1H-tetrazol-5-yl)phenyl)-5-phenyl-2,3,4,5-tetrahydrobenzo[b]oxepin-9-yl) quinolin-2-amine]: 0.0174 µM. The molecule `Cc1ccc(NC(=O)Nc2cc(-c3ccccc3C(=O)O)cc3c2OCCCC3c2ccccc2)cc1` (racemic) [Example 8-1, 2-(5-phenyl-9-(3-(p-tolyl)ureido)-2,3,4,5-tetrahydrobenzo[b]oxepin-7-yl)benzoic acid] yielded an IC50 of 0.0272 µM.

Molecule `O=C(Nc1ccc(F)cc1F)Nc1cc(-c2ccccc2-c2nnn[nH]2)cc2c1OCCCC2c1ccccc1` (stereo not shown) [Example 21, 1-(7-(2-(1H-tetrazol-5-yl)phenyl)-5-phenyl-2,3,4,5-tetrahydrobenzo[b]oxepin-9-yl)-3-(2,4-difluorophenyl)urea] gave a 50% inhibitory concentration (IC50) of 0.177 µM. Under `Fc1cnc(Nc2cc(-c3ccccc3-c3nnn[nH]3)cc3c2OCCCC3c2ccccc2)nc1` (single isomer, unassigned) [63 (En. 1), N-(7-(2-(1H-tetrazol-5-yl)phenyl)-5-phenyl-2,3,4,5-tetrahydrobenzo[b]oxepin-9-yl)-5-fluoropyrimidin-2-amine] stands 0.539 µM; under `CCC(C)C1CCCOc2c(NC(=O)Cc3ccc(C)cc3)cc(-c3ccccc3-c3nnn[nH]3)cc21` (single isomer, unassigned) [30 (Dia. mix 1), N-(7-(2-(1H-tetrazol-5-yl)phenyl)-5-(sec-butyl)-2,3,4,5-tetrahydrobenzo[b]oxepin-9-yl)-2-(p-tolyl)acetamide], 0.0776 µM.

`Cc1ccc(CC(=O)Nc2cc(-c3ccccc3-c3nnn[nH]3)cc3c2OCCCC3C2CC2)cc1` (single isomer, unassigned) [37 (En. 2), N-(7-(2-(1H-tetrazol-5-yl)phenyl)-5-cyclopropyl-2,3,4,5-tetrahydrobenzo[b]oxepin-9-yl)-2-(p-tolyl)acetamide] registered an IC50 of 0.0308 µM. Under `O=C(Nc1ccccc1F)Nc1cc(-c2ccccc2-c2nnn[nH]2)cc2c1OCCCC2C1CC1` (single isomer, unassigned) [38 (En. 1), 1-(7-(2-(1H-tetrazol-5-yl)phenyl)-5-cyclopropyl-2,3,4,5-tetrahydrobenzo[b]oxepin-9-yl)-3-(2-fluorophenyl)urea] stands 0.223 µM. Consider `Cc1ccc(CC(=O)Nc2cc(-c3ccccc3-c3nnn[nH]3)cc3c2OCCC(C)C3c2ccccc2)cc1` (single isomer, unassigned) [Example 48, N-(7-(2-(1H-tetrazol-5-yl)phenyl)-4-methyl-5-phenyl-2,3,4,5-tetrahydrobenzo[b]oxepin-9-yl)-2-(p-tolyl)acetamide], for which the IC50 stood at 0.0125 µM. `Cc1ccc(NC(=O)Nc2cc(-c3ccccc3-c3nnn[nH]3)cc3c2OCCC3c2ccccc2)cc1` (racemic) [Example 132, (+/−)-1-(6-(2-(2H-tetrazol-5-yl)phenyl)-4-phenylchroman-8-yl)-3-(p-tolyl)urea] had an IC50 of 0.0212 µM. Under `Cc1ccc(CC(=O)Nc2cc(-c3ccccc3-c3nnn[nH]3)cc3c2OCCC(C)C3c2ccccc2)cc1` (single isomer, unassigned) [Example 47, N-(7-(2-(1H-tetrazol-5-yl)phenyl)-4-methyl-5-phenyl-2,3,4,5-tetrahydrobenzo[b]oxepin-9-yl)-2-(p-tolyl)acetamide] stands 0.282 µM.
